The source of these data is patent US10875863B2, “RIPK2 inhibitors and method of treating cancer with same” (University Health Network, priority 2014, dated 2020).

The test system of one data set is HCT116 xenografts. Nature of the data set: In vivo response of HCT116 xenografts, tolerability and body weight. More on the design: species or system CB-17 SCID mice. The settings on record: SCID mice with HCT116 xenografts. The procedure:
HCT116 colon cancer cells were purchased from ATCC (American Type Culture Collections) and cultured in DMEM (Dulbecco's Modified eagle medium—purchased from GIBCO) supplemented with 10% fetal calf serum. Five million cells were injected subcutaneously in the right flank of 6-8 week old male CB-17 SCID mice. When the mean tumor volume reached 80-120 mm^3, mice were randomized into 5 groups (n=5) and received either vehicle (10% NMP, 40% PEG, 50% H2O) or compound at the doses indicated.
Tumor volume and body weight were measured three times weekly. Tumor volume was calculated by the following formula: x^2y/2. Percent tumor growth inhibition after initiation of treatment with compound was calculated by: TGI=100×1−(tumor volumefinal−tumor volumeinitial for compound treated group)/(tumor volumefinal−tumor volumeinitial for […] control group).

Data set [1] deals with IL-12-yellow fluorescent protein (YFP) reporter mouse bone marrow dendritic cells. Nature of the data set: IL-12-YFP reporter dendritic cells, flow cytometric analysis. Format: cell-based. The settings on record: 24 hours, LPS or Pam3Cys ± 1 μg/ml MDP. On the procedure: (§1) IL-12-yellow fluorescent protein (YFP) reporter mouse bone marrow dendritic cells were stimulated for 24 hours with 0.3 ng/ml LPS±1 μg/ml MDP (i.e., NOD2 agonist) in the presence of Example A3 (FIG. 2A). IL-12-yellow fluorescent protein (YFP) reporter mouse bone marrow dendritic cells were stimulated for 24 hours with 0.3 μg/ml Pam3Cys±1 μg/ml MDP (i.e., NOD2 agonist) in the presence of Example A3 (FIG. 2B). […] Data are represented as the mean±SEM of triplicate measurements. Levels of IL-12 p70 (FIG. 2C, left panel) and TNFα (FIG. 2C, right panel) in the cell culture supernatants from A were measured by ELISA techniques with commercially available kits. […] Data are represented as the mean±SEM of triplicate measurements.
A general note: A flow cytometer gives signals particle by particle.

A further data set relates to IL-12 p70. In words: IL-12 p70 in dendritic cell culture supernatants by ELISA. Format: cell-based, mouse. The settings on record: supernatants from LPS ± MDP stimulation. On the procedure: as §1
Background: ELISA stands for enzyme-linked immunosorbent assay.

A further data set concerns TNFα. Nature of the data set: TNFα in dendritic cell culture supernatants by ELISA. It is filed as cell-based, mouse. The settings on record: supernatants from LPS ± MDP stimulation. The procedure: as §1

Consider `Cc1ccccc1-c1cc2nc(Nc3cccc(N4CCOCC4)c3)ncc2[nH]1` [Example A3, N-(3-morpholinophenyl)-6-(o-tolyl)-5H-pyrrolo[3,2-d]pyrimidin-2-amine], for which the “mean body weight loss” value in the data set on HCT116 xenografts (92 mg/kg Q.D. p.o.) is 7.8%. Moreover, the tolerability entry in the data set on HCT116 xenografts (Q.D. p.o., 18 days) is reported as “well tolerated”. Also, the “mean body weight loss in the treated arms compared to control” value with HCT116 xenografts (treated arms versus control) was “less than 6%”. For the same compound, in data set [1], the “cell viability as assessed by 7AAD exclusion” value is recorded as “no measurable effect” and the “percentage of YFP positive cells (IL-12 positive cells)” value is “minimal effect”. For the same compound, the “mean fluorescence intensity YFP (amount of IL-12)” value in data set [1] (effect MDP-dependent) is on record as “dose-dependent reduction”. For the same compound, the “levels of IL-12 p70 in cell culture supernatants” value in the data set with IL-12 p70 is “dose-dependent reduction”. Moreover, in the data set with TNFα, the “levels of TNFα in cell culture supernatants” value is given as “dose-dependent reduction”.
